In the supplement of paper PMC10307832:

Columns and labels:
Experiment in all cases: relative viability (nuclei count vs DMSO), 5 days (fraction); higher = more cells survive
Docetaxel = compound: CC(=O)O[C@@]12CO[C@@H]1C[C@H](O)[C@@]1(C)C(=O)[C@H](O)C3=C(C)[C@@H](OC(=O)[C@H](O)[C@@H](NC(=O)OC(C)(C)C)c4ccccc4)C[C@@](O)([C@@H](OC(=O)c4ccccc4)[C@H]21)C3(C)C [Docetaxel]
Outline: (§1)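 Lung cancer cell lines in 1536-well plates were kept overnight at 37 °C, then pinned with five library-drug doses (not always all listed) spaced by √10 on vehicle-anchored plates. After 5 days without medium change, cells were fixed, permeabilised and Hoechst-stained in one step, imaged at 4×, and nuclei were counted with MetaXpress. Viability is treated-well nuclei divided by vehicle-well nuclei, taken as the median over plates. Plates passed only with control CV below 25% and at least one doubling.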

Tivozanib = compound: COc1cc2nccc(Oc3ccc(NC(=O)Nc4cc(C)on4)c(Cl)c3)c2cc1OC [Tivozanib]
Outline: as §1

[1] = compound: Cc1cnc(-c2cnc(NCCNc3ccc(C#N)cn3)nc2-c2ccc(Cl)cc2Cl)[nH]1
Outline: as §1

JQ1 = compound: Cc1sc2c(c1C)C(c1ccc(Cl)cc1)=N[C@@H](CC(=O)OC(C)(C)C)c1nnc(C)n1-2 [JQ1]
Outline: as §1

Cytarabine = compound: Nc1ccn([C@@H]2O[C@H](CO)[C@@H](O)[C@@H]2O)c(=O)n1 [Cytarabine]
Outline: as §1

CPI-613 = compound: O=C(O)CCCCC(CCSCc1ccccc1)SCc1ccccc1 [CPI-613]
Outline: as §1

Pimozide = compound: O=c1[nH]c2ccccc2n1C1CCN(CCCC(c2ccc(F)cc2)c2ccc(F)cc2)CC1 [Pimozide]
Outline: as §1

Cell Line: NCI-H647
- relative viability (Docetaxel; 0.0002 µM): 0.739
- relative viability (Docetaxel; 0.000632 µM): 0.43
- relative viability (Docetaxel; 0.002 µM): 0.209
- relative viability (Docetaxel; 0.006325 µM): 0.148
- relative viability (Docetaxel; 0.02 µM): 0.0799
- relative viability (Tivozanib; 0.005 µM): 0.843
- relative viability (Tivozanib; 0.01581 µM): 0.98
- relative viability (Tivozanib; 0.05 µM): 0.981
- relative viability (Tivozanib; 0.1581 µM): 0.844
- relative viability (Tivozanib; 0.5 µM): 0.826
- relative viability ([1]; 0.08 µM): 1.06
- relative viability ([1]; 0.253 µM): 0.862
- relative viability ([1]; 0.8 µM): 0.931
- relative viability ([1]; 2.53 µM): 0.934
- relative viability (JQ1; 0.04 µM): 0.894
- relative viability (JQ1; 0.1265 µM): 0.569
- relative viability (JQ1; 0.4 µM): 0.527
- relative viability (JQ1; 1.265 µM): 0.292
- relative viability (JQ1; 4 µM): 0.121
- relative viability (Cytarabine; 0.005 µM): 0.63
- relative viability (Cytarabine; 0.01581 µM): 0.323
- relative viability (Cytarabine; 0.05 µM): 0.265
- relative viability (Cytarabine; 0.1581 µM): 0.111
- relative viability (Cytarabine; 0.5 µM): 0.0762
- relative viability (CPI-613; 5 µM): 0.913
- relative viability (CPI-613; 15.81 µM): 0.778
- relative viability (CPI-613; 50 µM): 0.871
- relative viability (CPI-613; 158.11 µM): 0.499
- relative viability (CPI-613; 500 µM): 0.239
- relative viability (Pimozide; 0.08 µM): 0.91
- relative viability (Pimozide; 0.253 µM): 0.981
- relative viability (Pimozide; 0.8 µM): 0.848
- relative viability (Pimozide; 2.53 µM): 0.857
- relative viability (Pimozide; 8 µM): 0.806

Cell Line: NCI-H650
- relative viability (Docetaxel; 0.0002 µM): 0.871
- relative viability (Docetaxel; 0.000632 µM): 0.456
- relative viability (Docetaxel; 0.002 µM): 0.343
- relative viability (Docetaxel; 0.006325 µM): 0.257
- relative viability (Docetaxel; 0.02 µM): 0.187
- relative viability (Tivozanib; 0.005 µM): 0.86
- relative viability (Tivozanib; 0.01581 µM): 0.979
- relative viability (Tivozanib; 0.05 µM): 0.935
- relative viability (Tivozanib; 0.1581 µM): 0.607
- relative viability (Tivozanib; 0.5 µM): 0.706
- relative viability ([1]; 0.08 µM): 1.03
- relative viability ([1]; 0.253 µM): 1.01
- relative viability ([1]; 0.8 µM): 0.797
- relative viability ([1]; 2.53 µM): 0.783
- relative viability (JQ1; 0.04 µM): 0.946
- relative viability (JQ1; 0.1265 µM): 0.628
- relative viability (JQ1; 0.4 µM): 0.78
- relative viability (JQ1; 1.265 µM): 0.365
- relative viability (JQ1; 4 µM): 0.298
- relative viability (Cytarabine; 0.005 µM): 0.893
- relative viability (Cytarabine; 0.01581 µM): 0.581
- relative viability (Cytarabine; 0.05 µM): 0.328
- relative viability (Cytarabine; 0.1581 µM): 0.234
- relative viability (Cytarabine; 0.5 µM): 0.205
- relative viability (CPI-613; 5 µM): 0.937
- relative viability (CPI-613; 15.81 µM): 0.803
- relative viability (CPI-613; 50 µM): 1.05
- relative viability (CPI-613; 158.11 µM): 0.621
- relative viability (CPI-613; 500 µM): 0.716
- relative viability (Pimozide; 0.08 µM): 0.969
- relative viability (Pimozide; 0.253 µM): 0.914
- relative viability (Pimozide; 0.8 µM): 0.839
- relative viability (Pimozide; 2.53 µM): 0.997
- relative viability (Pimozide; 8 µM): 1.12

Cell Line: NCI-H661
- relative viability (Docetaxel; 0.0002 µM): 0.93
- relative viability (Docetaxel; 0.000632 µM): 0.986
- relative viability (Docetaxel; 0.002 µM): 1
- relative viability (Docetaxel; 0.006325 µM): 0.541
- relative viability (Docetaxel; 0.02 µM): 0.459
- relative viability (Tivozanib; 0.005 µM): 0.954
- relative viability (Tivozanib; 0.01581 µM): 0.975
- relative viability (Tivozanib; 0.05 µM): 0.993
- relative viability (Tivozanib; 0.1581 µM): 0.992
- relative viability (Tivozanib; 0.5 µM): 1.01
- relative viability ([1]; 0.08 µM): 0.979
- relative viability ([1]; 0.253 µM): 0.973
- relative viability ([1]; 0.8 µM): 0.975
- relative viability ([1]; 2.53 µM): 0.898
- relative viability (JQ1; 0.04 µM): 1.03
- relative viability (JQ1; 0.1265 µM): 0.962
- relative viability (JQ1; 0.4 µM): 0.952
- relative viability (JQ1; 1.265 µM): 0.879
- relative viability (JQ1; 4 µM): 0.769
- relative viability (Cytarabine; 0.005 µM): 1.04
- relative viability (Cytarabine; 0.01581 µM): 0.93
- relative viability (Cytarabine; 0.05 µM): 0.902
- relative viability (Cytarabine; 0.1581 µM): 0.715
- relative viability (Cytarabine; 0.5 µM): 0.581
- relative viability (CPI-613; 5 µM): 0.963
- relative viability (CPI-613; 15.81 µM): 0.914
- relative viability (CPI-613; 50 µM): 0.956
- relative viability (CPI-613; 158.11 µM): 0.832
- relative viability (CPI-613; 500 µM): 0.233
- relative viability (Pimozide; 0.08 µM): 0.99
- relative viability (Pimozide; 0.253 µM): 1.01
- relative viability (Pimozide; 0.8 µM): 0.925
- relative viability (Pimozide; 2.53 µM): 0.897
- relative viability (Pimozide; 8 µM): 0.924

Cell Line: NCI-H727
- relative viability (Docetaxel; 0.0002 µM): 0.772
- relative viability (Docetaxel; 0.000632 µM): 0.892
- relative viability (Docetaxel; 0.002 µM): 0.726
- relative viability (Docetaxel; 0.006325 µM): 0.548
- relative viability (Docetaxel; 0.02 µM): 0.413
- relative viability (Tivozanib; 0.005 µM): 0.8
- relative viability (Tivozanib; 0.01581 µM): 0.85
- relative viability (Tivozanib; 0.05 µM): 1.01
- relative viability (Tivozanib; 0.1581 µM): 0.702
- relative viability (Tivozanib; 0.5 µM): 0.917
- relative viability ([1]; 0.08 µM): 0.952
- relative viability ([1]; 0.253 µM): 0.864
- relative viability ([1]; 0.8 µM): 0.943
- relative viability ([1]; 2.53 µM): 0.86
- relative viability (JQ1; 0.04 µM): 0.923
- relative viability (JQ1; 0.1265 µM): 0.988
- relative viability (JQ1; 0.4 µM): 0.413
- relative viability (JQ1; 1.265 µM): 0.465
- relative viability (JQ1; 4 µM): 0.409
- relative viability (Cytarabine; 0.005 µM): 0.785
- relative viability (Cytarabine; 0.01581 µM): 0.766
- relative viability (Cytarabine; 0.05 µM): 0.788
- relative viability (Cytarabine; 0.1581 µM): 0.402
- relative viability (Cytarabine; 0.5 µM): 0.382
- relative viability (CPI-613; 5 µM): 0.831
- relative viability (CPI-613; 15.81 µM): 0.825
- relative viability (CPI-613; 50 µM): 0.916
- relative viability (CPI-613; 158.11 µM): 0.654
- relative viability (CPI-613; 500 µM): 0.309
- relative viability (Pimozide; 0.08 µM): 0.849
- relative viability (Pimozide; 0.253 µM): 0.864
- relative viability (Pimozide; 0.8 µM): 0.998
- relative viability (Pimozide; 2.53 µM): 0.879
- relative viability (Pimozide; 8 µM): 0.93
